Measurements taken from patent US8865672B2, “Prevention of tissue ischemia and related methods” (The United States of America, as represented by the …, priority 2006, dated 2014).

Columns and labels:
HAVSMC [1] = assay: 3D collagen matrix contraction assay, human aortic VSMC; type: cell-based; conditions: HAVSMC, 10% FCS or 100 nM S1P
Protocol: Type I collagen gel (3 mg/ml) with 10×M199 (Gibco, Grand Island, N.Y.) at a 10:1 ratio of collagen to medium was prepared, pH balanced with NaOH and seeded with either HAVSMC or VSMC harvested from aortic segments from C57B16 WT or TSP1 null mice (50,000 cells in 75 μl of gel/well) and aliquoted to 96-well plates (Nunc, Denmark). Plates were incubated for 12 h 37° C. and 5% CO2 allowing for gelation and cell spreading, gently released from the well walls and incubated in serum and additive deficient growth medium with 0.1% BSA in the presence of the indicated treatment agents for 10 h. Contraction was determined by measuring the diameter in perpendicular planes (x, y) of each disk, an average obtained and surface area calculated as (d/2)^2π. Experiments were performed in triplicate. Results represent the mean±SD of at least three separate experiments.
Human aortic VSMC were plated onto 12-well culture plates (Nunc) at a density of 5×10^4 cells/well in SM-GM+2% FCS and cultured until approximately 90% confluent. A translation-blocking antisense morpholino oligonucleotide complementary to human and murine CD47 ([…]; SEQ ID NO: 21) and a five-base mismatch control (CGTgACAGcCAcGACCgACTGCgCA; SEQ ID NO: 22) were obtained from GeneTools (Philomath, Oreg.). Cultured cells were treated as per the manufacturer's recommendation with morpholinos (10 μM) and utilized within 48 hours of treatment.

[2] = system: full thickness skin grafts in mice; assay: Full thickness skin graft (FTSG) model; type: in vivo, mouse; conditions: TSP1-null grafts, agent in drinking water post-operatively
Protocol: Wild type, TSP1 null, CD47 null and CD36 null mice were matched for sex and age. Anesthesia was induced by and maintained with inhalation isoflurane. Body temperature was maintained at 37° C. with a heating pad during the procedure. The dorsal surface was clipped of hair and depilated with Nair®. The skin was then cleansed with surgical soap and alcohol and the animals draped. Using sterile technique, a 1×1 cm FTSG incorporating the panniculus carnosus, subcutaneous tissues and skin were raised. Graft dimensions were marked on the animal skin surface with the aid of a template to insure consistency in dimension. Grafts were in the midline of the animal and secured with four interrupted 5-0 nylon sutures. Sutures were so placed as to include the fascia of the dorsal musculature to provide increased immobilization of grafts to the underlying wound bed Animals were awakened and returned to individual cages and allowed ad libitum access to food and water. Trauma to FTSG was not encountered during the post-operative interval since grafts were located in the dorsal midline over the mid thoracic area and each animal was housed individually following surgery. On postoperative day three or seven, the animals were again anesthetized with inhalation isoflurane and skin graft survival evaluated.
The groups of animals utilized and the treatments received as indicated either at the time of skin grafting and/or during the post-operative interval are summarized in FIG. 21. Animals treated with ISDN (1 mg/ml) or L-NAME (0.5 mg/ml) had ad libitum access to drinking water containing the given concentrations of agents during the post-operative interval. Animals treated with a CD47 monoclonal antibody (Ab clone 301) or an isotype matched control antibody (Ig2α) underwent injection of 40 μg delivered as 10 μl of a 4 mg/ml stock in 100 μl of PBS with equal volumes injected between the wound bed and graft prior to suturing the graft in place. Animals treated with a CD47 morpholino oligonucleotide underwent injection of the FTSG and wound bed with 10 μmol/L in 250 μl of PBS with 125 μl volumes injected in the graft and wound bed, respectively prior to suturing the graft in place.
The necrotic areas of the FTSG were determined by color, refill, eschar, and the pin-prick test. The outlines of viable and nonviable areas were traced using transparent film, and the area of necrosis cut from the template and the area of skin graft necrosis versus total skin graft area determined by comparison of the original template weight to the weight of the cut template utilizing the method described by Ueda (Ueda et al., J Surg Res 80(2):200-204, 1998). Skin graft survival area was presented as the ration of graft survival on post-operative day three or seven divided by the original graft area multiplied by 100%. Additionally, digital images were then acquired using an Olympus C5500 digital camera at a fixed distance (20 cm perpendicular to the animal) under standard room lighting with autoflash and macro settings engaged and uploaded for image analysis of tissue survival with a standard software program (Image-Pro Plus, Media Cybernetics, Inc., Silver Spring, Md.). […]
Skin graft wound beds were assessed at indicated time points (72 hours or 7 days post-operatively) for visible alterations in vascularity under 5× magnification. […] Visible vessels without ramifications and branches were counted once. […]

[3] = system: random myocutaneous flaps in mice; assay: Random myocutaneous (McFarlane) flap model; type: in vivo, mouse; conditions: aged TSP1-null animals, agent in drinking water
Protocol: WT and TSP1 null mice were matched for sex and age. Under isoflurane inhalation anesthesia 1×2 cm random myocutaneous flaps were raised. Where indicated, animals received either L-NAME (0.5 mg/ml) or ISDN (1 mg/ml) ad libitum in drinking water during the post-operative period. On postoperative day 7, the animals were again anesthetized with inhalation isoflurane and flaps evaluated. Viable and necrotic areas of the flaps were determined by color, refill, eschar, and the pin-prick test. Outlines of viable and nonviable areas were traced using transparent film and the area of flap necrosis versus total flap area determined as described (Yu et al., Proc Natl Acad Sci USA 102:10999-11004, 2005).
Wild type, TSP1 null, CD36 null and CD47 null mice were matched for sex and age underwent random dorsal myocutaneous flaps as described (Isenberg et al., Blood 2006; Example 2) and tissue harvested on postoperative day 7.
The necrotic area of the flap was determined as described (Isenberg et al., Blood. Nov. 2, 2006) Animals were then euthanized and flaps excised, fixed in 10% paraformaldehyde and processed for histology.
Random myocutaneous flap wound beds and/or ischemic hindlimb vastus medialis muscle was assessed at indicated time points (72 hours or 7 days post-operatively) for visible alterations in vascularity under 5× magnification. An arbitrary though strictly applied definition of countable vessels was employed to highlight both individual vessels and vascular ramifications. In any given vascular plexus visible by 5× magnification a vessel was defined as that segment traversing two branches. Visible vessels without ramifications and branches were counted once. Treatment status and genetic background of tissue images was not known by the reviewer.
Animals underwent creation of a random myocutaneous (McFarlane) flap as previously described (Isenberg et al., Blood 109:1945-1952, 2007). Some animals received either ISDN (1 mg/mL) or L-NAME (0.5 mg/ml) ad libitum in the drinking water during the post-operative interval.
Flap soft tissue units and underling wound beds were injected with control vehicle (normal saline), a CD47 morpholino or a control morpholino (10 μM) in sterile saline. Flap survival was determined as described.

HAVSMC [4] = assay: Actin cytoskeleton staining (F-actin) in HAVSMC; type: cell-based, human; conditions: agent alone (TSP1 2.2 nM, S1P 100 nM)
Protocol: VSMC were grown on glass well slides (Lab-Tek, Nunc) under standard growth conditions. Cells were incubated at 37° C. for 1 hour in serum and additive deficient growth medium and the indicated treatment agents, after which the media was removed and the cells were fixed in 4% paraformaldehyde in PBS (pH 7.4, Fisher Scientific) for 15 minutes at room temperature. After washing with DPBS, cells were permeabilized for 5 minutes in 0.1% Triton X-100 in PBS and then blocked in M199E/2% BSA for 30 min at room temperature. Cells were stained for F-actin with 1 unit/200 μl medium/1% BSA of Oregon Green 488 phalloidin (Molecular Probes). Slides were imaged using an Olympus IX70 microscope and photographed at constant exposure and gain. In other experiments VSMC were plated on 24-well culture plates (Nunc, Denmark) in smooth muscle growth medium (50,000 cells/well) and weaned from serum and additives over 24 hours. Cell treatment was performed with the indicated agents in plain medium with 0.1% BSA for 5 minutes. Wells were processed as described above. Following staining with phalloidin cells were incubated in methanol for 30 minutes, samples aliquoted to 96-well black plates and fluorescence read at 520 nm (excitation 495 nm). Data was normalized to total protein. Results represent the mean±SD of at least three separate experiments.

[5] = system: vascular cell outgrowth from muscle explants; assay: Explant invasion assay in 3D collagen; type: cell-based, mouse; conditions: wild type and TSP1 null explants, NO 10 μM, peptides 10 μM, NoC1 0.1 μg/ml, day 7
Protocol: Muscle biopsies from the pectoralis major muscle of 8 to 12 week old wild type or transgenic mice were harvested and explanted into 100 μl of type I collagen gel in 96-well tissue culture plates as described (Isenberg et al., Matrix Biol 24:110-123, 2005). Following gelation, the embedded explants were overlayed with 75 μl of EGM+2% FCS in the presence or absence of a dose range of DETA/NO (0.01-1000 μM) and other indicated treatments and then incubated at 37° C. and 5% CO2 for 7 days, at which time maximum vascular cell migration through the matrix was measured.

In the case of `NCCN(CCN)/[N+]([O-])=N/O` [DETA/NO, diethyltriamine NONOate], the collagen gel contraction (HAVSMC [1]) is reported as “inhibited gel contraction by both agonists”.

With `O=[N+]([O-])O[C@H]1CO[C@H]2[C@@H]1OC[C@H]2O[N+](=O)[O-]` [ISDN, Isosorbide dinitrate, reference compound] the FTSG survival [2] was “not substantially altered” and the flap survival [3] was “did not dramatically alter flap survival”.

In the case of `CCCCCCCCCCCCC/C=C/[C@@H](O)[C@@H](N)COP(=O)(O)O` [S1P, sphingosine-1-phosphate, reference compound], the collagen gel contraction (HAVSMC [1]) is reported as “significant contraction” and the F-actin levels (HAVSMC [4]) is reported as “increased F-actin”.

VTCGGGVQKRSRL [p245] was tested, and the “NO-stimulated vascular cell outgrowth” value [5] was “inhibited vascular cell outgrowth”.
